# Measurements as given in patent US9988626B2, “Neurocalcin delta inhibitors and therapeutic and non-therapeutic uses thereof” (Universität Zu Köln, priority 2013, dated 2018).
# Entries after “also recorded” stand apart in the source; their conditions may differ.
# How the values were obtained:
# Type in all cases: in vivo
# [1] = system: zebrafish larvae; test: High-speed tracking of zebrafish swimming velocity after electric stimulation; settings: 48 hpf zebrafish, n=30 per treatment
# Protocol: To analyse the swimming behaviour of zebrafish morphants, high-speed imaging was performed. In brief 30 zebrafish larvae, all treated with each respective morpholino, were placed in a 10 cm petri dish containing fish embryo medium. To trigger a swimming response, fish were stimulated with an electrical impulse (60 V; delay: 60 ms, duration: 4 ms, frequency: 6 pps (SD9 Stimulator)). Swimming behaviour was recorded with 120 frames per second using a high-speed camera (FC-100, Casio). Quality of the high-speed video was optimized for analysis (Adobe) and afterwards swimming velocity and distance was analysed using LoliTrack software (Loligo Systems).
# [2] = system: zebrafish larvae; test: TEM analysis of synaptic cleft width of zebrafish NMJs
# Protocol: Whole zebrafish larvae were fixed in 4% PFA for 30 min and postfixed in 0.6% glutaraldehyde for 24 h. Larvae were embedded in Epoxy resin (Plano) and cross sections were performed according to previously described and adapted TEM protocol (Voigt et al. 2010). Thickness of semi-thin and ultra-thin sections was 0.5 μm and 0.1 μm, respectively. Image acquisition was performed as described in the supplement. Image acquisition was performed using the TEM CM10 (Philips) microscope with the Orius SC200W 1 Gatan camera and Digital Micrograph software.
# 48 hpf zebrafish larvae were fixed in 4% PFA for 30 min and postfixed in 0.6% glutaraldehyde for another day. Gold-labeled secondary antibodies were used for co-localization studies of Ncald and Clathrin. Image acquisition of ultra-thin sections with a thickness of […] was performed using the TEM CM10 (Philips) microscope with the Orius SC200W 1 Gatan camera and the Digital Micrograph software.
# 48 hpf zebrafish larvae were fixed in 4% PFA for […] and postfixed in 0.6% glutaraldehyde for another day. Samples were then prepared and embedded in resin as previously described. The thickness of semi-thin and ultra-thin sections was […], respectively. For immunogold stainings, in brie pre-stained sections were blocked and afterwards incubated with primary antibodies (anti-clathrin, 1:50, anti-NCALD, 1:50) and washed in PBS; after that sections were stained with gold-labelled secondary antibodies (donkey anti-mouse 6 nm gold, 1:100; goat anti-rabbit 20 nm gold 1:100; Abeam). Image acquisition was performed using the TEM CM10 (Philips) microscope with the Orius SC200W 1 Gatan camera and the Digital Micrograph software.
# [3] = system: zebrafish embryos; test: Zebrafish motor axon phenotype (znp-1 staining) after morpholino or mRNA injection; settings: 34 hpf zebrafish, smn MO 4 ng, ncald MO 2 ng
# Protocol: Zebrafish were dechorionated and fixed in 4% PFA-PBS 34 hours after fertilization. Collagenase digest was performed to permeabilize the larvae for the following antibody staining. In brief, fish were stained at 4° C. over night in 500 μl PBS-T/10% FCS containing znp-1 antibody (1:300, Hybridoma Bank). After all-day washing in PBS-T/1% FCS/1% BSA (changing solution every hour) fish were stained in PBS-T/1% DMSO/10% FCS containing secondary donkey anti-mouse antibody labelled with Alexafluor 488 (1:200, Invitrogen). After repeated washing, fish were stored in 80% glycerol/20% PBS in the dark at 4° C. Microscopic analysis of fish was performed in 80% glycerol on micro slides using a fluorescence microscope (Axioskop 2, Zeiss). The length of each of the first ten motoraxons behind the yolk was analyzed and evaluated. For NSC34 cell staining cells were fixed in 4% PFA for 15 min at RT. Following fixation, cells were rinsed 1× in PBS for 5 min. After another washing step with PBS, cells were permeabilized in 0.2% Triton X in PBS for 5 min. […]
# The used antisense Morpholino (MO) was designed against the translational start codon of the ncald gene (Gene Tools, LLC): 5′-[…]-3′ (SEQ ID NO: 2). […] Six hours after injection embryos were sorted according to homogeneity of the rhodamine fluorescence signal reflecting the equal distribution of the injected MO solution. […]
# [4] = MO-injected 48 hpf fish, N=3, n=5 (FIG. 17E)
substance,measurement,setting,value
"smn MO: previously published morpholino knocking down zebrafish smn, CGACATCTTCTGCACCATTGGC (all phosphorodiamidate morpholino (PMO))",Swimming velocity after electrical stimulation,[1],significantly reduced velocity
same,Width of synaptic cleft / NMJ maturation,"[2]; Example 1, FIG. 8, 34 hpf zebrafish larvae",significant reduction of the width of the synaptic cleft
same,"Width of synaptic cleft, mean",[2]; [4],30.26 nm
same,"Width of synaptic cleft, median",[2]; [4],23.51 nm
same,"Motor axon phenotype (truncation, branching)",[3],high numbers of severely truncated motor neuron axons; also recorded: massive motor axon-specific outgrowth defects
